Reference: US9605025B2, “Antagonist peptide of the bond between CD47 and a protein belonging to the thrombospondin family” (Universite de Reims Champagne Ardenne, priority 2011, dated 2017)

Assays:
B16-F1 mouse melanoma = B16-F1 mouse melanoma model in syngeneic C57Bl/6 mice; assay type: in vivo
Procedure: FIG. 6 is a photo illustration showing the action of the cyclized antagonist peptide on mouse melanoma cells. After a subcutaneous injection of 250,000 B16-F1 mouse melanoma cells into syngeneic C57Bl/6 mice, intraperitoneal administrations of 10 mg/kg of the antagonist were given on days 3, 5 and 7. The mice were then sacrificed and the tumors photographed on day 20.
FIG. 7 is a photo illustration corresponding to an MRI analysis of an untreated tumor (on the left) and a tumor treated with the cyclized peptide of interest on day 12. An arrow points to the necrotic area.
was also tested directly in vivo on a B16-F1 mouse melanoma model injected into syngeneic C57Bl/6 mice.
FIG. 7 allows a comparison, thanks to a magnetic resonance imaging (RMI) analysis, of the tumor taken from the animal not treated with the tumor taken from the animal treated with the cyclized peptide by means of a disulfide bridge on day 12 after the injection of the tumor cells.

TSP1/CD47 complexes = molecular target: T1, TSP1/CD47 complexes (Homo sapiens, UniProt P07996); assay: immunoprecipitation of TSP1/CD47 complexes with anti-CD47 antibody and Western Blot in MDA-MB-231 cells; assay type: cell-based; settings: MDA-MB-231 breast cancer cells, 100 μM peptide
T1 construct: endogenous in cells; host or cells: MDA-MB-231 breast cancer cells
Procedure: FIG. 5 is a photo illustration showing the inhibition of the biomolecular interaction between the TSP1 and the CD47 receptor of the MDA-MB-231 breast cancer cells. The cells are incubated for 2 hours with […] 100 μM of the antagonist peptide according to the invention. The TSP1/CD47 complexes are then immunoprecipitated using an anti-CD47 antibody, then the presence of TSP1 and CD47 is analyzed using the Western Blot technique.
Thus, MDA-MB-231 cells corresponding to cells from a breast cancer were incubated for 24 hours with or without the dodecapeptide according to this invention. In particular, the peptide used was the one with sequence:
Immunoprecipitation of the complexes, with an antibody directed against the CD47, then an analysis of the TSP1 and CD47 proteins by the Western Blot method were then done.

[1] = test system: thyroid carcinoma cells (FTC-133); assay: viability of FTC-133 thyroid carcinoma cells treated with camptothecin or doxorubicin; assay type: cell-based, human; settings: FTC-133, 5 μM camptothecin or doxorubicin; for viability of the tumor cells: 100 μM peptide
Procedure: FIG. 2 is a graph illustration showing the role of the peptide 4N1 (KRFYVVMWK (SEQ ID NO: 5), derived from the C-terminal domain of TSP1, and the CD47 receptor on the regulation of apoptosis induced by camptothecin (Cpt) or doxorubicin (Dox). To achieve this, thyroid carcinoma cells (FTC-133) were incubated with 5 μM of one or other of the drugs and 100 μM of test peptide 4N1 with or without B6H12 antibody (100 μg/mL) blocking the CD47 receptor. The same experiment was performed with a control peptide 4NGG (KRFYGGMWK SEQ ID NO:6), which is incapable of binding the CD47.
The inventors therefore sought to understand the role of the peptide 4N1 and the CD47 receptor in the inhibition of the apoptosis of cancer cells, and in particular the FTC-133 cells of human thyroid carcinoma (Rath et al., 2006).

[2] = test system: follicular thyroid carcinoma cells; assay: caspase-3 activity (marker of apoptosis) in follicular thyroid carcinoma cells treated with camptothecin or doxorubicin; assay type: cell-based, human; settings: in the presence of doxorubicin or camptothecin, with vs without TSP1
Procedure: FIG. 1 is a graph illustration showing the caspase-3 activity, a marker of apoptosis, obtained by measuring the quantity of para-nitroaniline released per hour per μg of protein (y-axis). The caspase-3 activity is measured on follicular thyroid carcinoma cells in the presence of an anticancer molecule inducing apoptosis, camptothecin (Cpt) or doxorubicin (Dox) in the presence or absence of TSP1.
The latter therefore reduces the rate of apoptosis of the thyroid carcinoma cells subjected to an anti-cancer therapy.

T1 sequence (P07996 19-1170, one chain of several): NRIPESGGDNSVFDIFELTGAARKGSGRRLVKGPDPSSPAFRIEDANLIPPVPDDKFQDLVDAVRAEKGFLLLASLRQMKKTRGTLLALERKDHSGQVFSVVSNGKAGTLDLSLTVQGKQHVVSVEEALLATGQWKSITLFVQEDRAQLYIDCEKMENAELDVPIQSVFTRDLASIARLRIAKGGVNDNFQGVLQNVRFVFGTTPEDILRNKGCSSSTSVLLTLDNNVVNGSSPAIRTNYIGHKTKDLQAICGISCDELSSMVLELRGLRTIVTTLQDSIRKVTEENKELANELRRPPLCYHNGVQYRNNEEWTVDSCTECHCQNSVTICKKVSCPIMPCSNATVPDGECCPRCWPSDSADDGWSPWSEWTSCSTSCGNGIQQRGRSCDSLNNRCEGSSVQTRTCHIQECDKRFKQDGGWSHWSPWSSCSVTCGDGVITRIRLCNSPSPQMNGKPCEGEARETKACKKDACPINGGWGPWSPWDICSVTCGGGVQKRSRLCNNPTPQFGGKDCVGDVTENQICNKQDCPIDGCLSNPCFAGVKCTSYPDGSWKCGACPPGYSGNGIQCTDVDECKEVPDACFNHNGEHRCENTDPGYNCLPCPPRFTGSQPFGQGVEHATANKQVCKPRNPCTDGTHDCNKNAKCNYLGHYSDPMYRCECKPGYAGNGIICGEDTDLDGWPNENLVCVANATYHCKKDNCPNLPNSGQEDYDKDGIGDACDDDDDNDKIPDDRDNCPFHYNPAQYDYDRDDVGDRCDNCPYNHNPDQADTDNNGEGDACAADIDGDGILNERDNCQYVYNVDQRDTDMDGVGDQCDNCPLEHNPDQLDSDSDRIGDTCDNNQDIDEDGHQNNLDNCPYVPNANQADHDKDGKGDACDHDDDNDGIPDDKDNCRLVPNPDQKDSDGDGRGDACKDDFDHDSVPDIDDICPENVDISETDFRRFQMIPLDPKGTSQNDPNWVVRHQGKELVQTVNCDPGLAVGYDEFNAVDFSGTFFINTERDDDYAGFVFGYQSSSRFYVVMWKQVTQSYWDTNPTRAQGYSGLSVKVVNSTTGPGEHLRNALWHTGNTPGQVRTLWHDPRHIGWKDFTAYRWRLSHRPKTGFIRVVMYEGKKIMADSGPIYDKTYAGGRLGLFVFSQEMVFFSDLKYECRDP

Row | Substance | TSP1 detected by Western Blot after immunoprecipitation with anti-CD47 antibody (TSP1/CD47 interaction) (TSP1/CD47 complexes) | viability of the tumor cells [1] | other results
1 | CEVSQLLKGDAC [SEQ ID NO: 2] | prevents the molecular interaction between the TSP1 protein and the CD47 receptor | – | mice showing a large necrotic area located in the tumor (B16-F1 mouse melanoma; 10 mg/kg intraperitoneal on days 3, 5 and 7, tumors on day 20): 4/8; necrotic area in the tumor by MRI analysis (B16-F1 mouse melanoma; day 12 after the injection of the tumor cells): has a necrotic area
2 | KRFYVVMWK [4N1] | – | viability of the tumor cells is greater | protection of the tumor cells against the anti-cancer drugs ([1]; 100 μM peptide plus B6H12 antibody (100 μg/mL) blocking CD47): no longer protects the tumor cells
3 | KRFYGGMWK [4NGG] | – | does not have any effect | –
4 | IEVSQLLKGDAS (Antagonist peptide of the bond between a receptor CD47 and a protein belonging to the thrombospondin family) [SEQ ID NO: 1] | TSP1 is no longer detected | – | –
5 | TSP1: thrombospondin-1, extracellular matrix glycoprotein binding the CD47 receptor | – | – | caspase-3 activity (para-nitroaniline released per hour per μg of protein) [2]: inhibited considerably
